Data published in the CheMixHub viscosity set.
Several values for one entry are separate records, joined by “and”; a condition that tells them apart may be missing. Identical values can stand only once.

Assay: xn = mol fraction of the nth substance listed

COCC(C)O (stereo unspecified) + O
viscosity [mPa·s], 101.33 kPa
Conditions | 298.15 K | 308.15 K | 318.15 K
x1 = 0.0222 | 1.29 | 1 | 0.8257
x1 = 0.0396 | 1.651 | 1.236 | 0.98
x1 = 0.1131 | 3.035 | 2.119 | 1.579
x1 = 0.1959 | 3.731 | 2.615 | 1.925
x1 = 0.301 | 3.864 | 2.73 | 2.015
x1 = 0.3583 | 3.811 | 2.663 | 1.978
x1 = 0.4651 | 3.515 | 2.438 | 1.841
x1 = 0.5264 | 3.124 | 2.3 | 1.744
x1 = 0.7332 | 2.414 | 1.823 | 1.42
x1 = 0.8372 | 2.094 | 1.61 | 1.277
x1 = 0.9035 | 1.929 | 1.49 | 1.189

ClC(Cl)=C(Cl)Cl + CC(=O)c1ccccc1
298.15 K, 101 kPa
Conditions | viscosity [mPa·s]
x2 = 0.1255 | 0.893
x2 = 0.3215 | 1.023
x2 = 0.5397 | 1.198
x2 = 0.7329 | 1.382
x2 = 0.9142 | 1.555

Cc1ccnc(C)c1 + C1CCCCC1
viscosity [mPa·s], 101 kPa
Conditions | x1 = 0.1087 | x1 = 0.208 | x1 = 0.3004 | x1 = 0.407 | x1 = 0.507 | x1 = 0.6004 | x1 = 0.6977 | x1 = 0.8002 | x1 = 0.9019
303 K | 0.7378 | 0.6882 | 0.6701 | 0.6574 | 0.6585 | 0.6674 | 0.6805 | 0.7102 | 0.7412
313 K | 0.6355 | 0.6204 | 0.6004 | 0.5891 | 0.5844 | 0.6004 | 0.6055 | 0.6285 | 0.6543
323 K | 0.5624 | 0.533 | 0.5166 | 0.5092 | 0.5073 | 0.52 | 0.54 | 0.5502 | 0.583

ClC(Cl)=C(Cl)Cl + CCC(C)O
viscosity [mPa·s]
Conditions | x1 = 0.1024 | x1 = 0.213 | x1 = 0.3172 | x1 = 0.4016 | x1 = 0.5142 | x1 = 0.6125 | x1 = 0.7018 | x1 = 0.7817 | x1 = 0.8032 | x1 = 0.9108
298.15 K, 101.3 kPa | – | – | – | – | – | – | – | 1.005 | – | –
303.15 K, 101.33 kPa | 1.918 | 1.508 | 1.263 | 1.127 | 1.005 | 0.93 | 0.884 | – | 0.852 | 0.822

NCC(=O)O + O
viscosity
Conditions | 101 kPa | 101.33 kPa
293.15 K, x1 = 0.0194 | 1.181 mPa·s | –
293.15 K, x1 = 0.0294 | 1.272 mPa·s | –
293.15 K, x1 = 0.036 | 1.332 mPa·s | –
298.15 K, x1 = 0.0002174 | 0.8944 mPa·s and 0.8944 mPa·s | –
298.15 K, x1 = 0.0004 | 0.894 mPa·s | –
298.15 K, x1 = 0.0007 | 0.8972 mPa·s | –
298.15 K, x1 = 0.0009 | 0.8942 mPa·s | –
298.15 K, x1 = 0.0009413 | 0.9111 mPa·s and 0.9111 mPa·s | –
298.15 K, x1 = 0.00135 | 0.8968 mPa·s | –
298.15 K, x1 = 0.0018 | 0.8995 mPa·s | –
298.15 K, x1 = 0.002695 | 0.9053 mPa·s | –
298.15 K, x1 = 0.003657 | 0.9319 mPa·s and 0.9319 mPa·s | –
298.15 K, x1 = 0.005496 | 0.932 mPa·s and 0.932 mPa·s | –
298.15 K, x1 = 0.008976 | 0.9754 mPa·s and 0.9754 mPa·s | –
298.15 K, x1 = 0.0108 | 0.9757 mPa·s and 0.9757 mPa·s | –
298.15 K, x1 = 0.01215 | 0.9853 mPa·s and 0.9853 mPa·s | –
298.15 K, x1 = 0.01456 | 0.986 mPa·s and 0.986 mPa·s | –
303.15 K, x1 = 0.0003 | 0.803 mPa·s | –
303.15 K, x1 = 0.0004 | 0.8014 mPa·s | –
303.15 K, x1 = 0.0007 | 0.8046 mPa·s | –
303.15 K, x1 = 0.0009 | 0.801 mPa·s | –
303.15 K, x1 = 0.00135 | 0.8035 mPa·s | –
303.15 K, x1 = 0.0018 | 0.8126 mPa·s | –
303.15 K, x1 = 0.002 | 0.816 mPa·s | –
303.15 K, x1 = 0.0022 | 0.8155 mPa·s | –
303.15 K, x1 = 0.002695 | 0.8117 mPa·s | –
303.15 K, x1 = 0.0029 | 0.8217 mPa·s | –
303.15 K, x1 = 0.003592 | 0.8207 mPa·s | –
303.15 K, x1 = 0.0063 | 0.8489 mPa·s | –
303.15 K, x1 = 0.0107 | 0.8659 mPa·s | –
303.15 K, x1 = 0.01246 | 0.8788 mPa·s | –
303.15 K, x1 = 0.0129 | 0.8994 mPa·s | –
303.15 K, x1 = 0.0194 | 0.9492 mPa·s | –
303.15 K, x1 = 0.0294 | 1.026 mPa·s | –
303.15 K, x1 = 0.036 | 1.076 mPa·s | –
308.15 K, x1 = 0.00135 | 0.7251 mPa·s | –
308.15 K, x1 = 0.0018 | 0.7276 mPa·s and 0.7355 mPa·s | 0.7365 mPa·s
308.15 K, x1 = 0.0022 | 0.7378 mPa·s | –
308.15 K, x1 = 0.0025 | 0.7407 mPa·s | –
308.15 K, x1 = 0.0029 | 0.7439 mPa·s | –
308.15 K, x1 = 0.003657 | 0.7609 mPa·s and 0.7609 mPa·s | –
308.15 K, x1 = 0.005496 | 0.7659 mPa·s and 0.7659 mPa·s | –
308.15 K, x1 = 0.007374 | 0.7773 mPa·s and 0.7773 mPa·s | –
308.15 K, x1 = 0.0108 | 0.8059 mPa·s and 0.8059 mPa·s | –
308.15 K, x1 = 0.01215 | 0.806 mPa·s and 0.806 mPa·s | –
308.15 K, x1 = 0.01456 | 0.8089 mPa·s and 0.8089 mPa·s | –
313.15 K, x1 = 0.001 | 0.664 mPa·s and 0.6667 mPa·s | –
313.15 K, x1 = 0.00135 | 0.6585 mPa·s | –
313.15 K, x1 = 0.002 | 0.667 mPa·s | –
313.15 K, x1 = 0.0022 | 0.6712 mPa·s | –
313.15 K, x1 = 0.0025 | 0.6739 mPa·s | –
313.15 K, x1 = 0.005375 | 0.6819 mPa·s | –
313.15 K, x1 = 0.0129 | 0.727 mPa·s | –
313.15 K, x1 = 0.0194 | 0.7628 mPa·s | –
313.15 K, x1 = 0.0294 | 0.8179 mPa·s | –
313.15 K, x1 = 0.036 | 0.8542 mPa·s | –
318.15 K, x1 = 0.0002174 | 0.6164 mPa·s and 0.6164 mPa·s | –
318.15 K, x1 = 0.0009 | 0.6007 mPa·s | –
318.15 K, x1 = 0.0018 | 0.6052 mPa·s | –
318.15 K, x1 = 0.001865 | 0.6321 mPa·s | –
318.15 K, x1 = 0.002245 | 0.6076 mPa·s | –
318.15 K, x1 = 0.002695 | 0.6099 mPa·s | –
318.15 K, x1 = 0.005496 | 0.6417 mPa·s | –
318.15 K, x1 = 0.007374 | 0.6579 mPa·s and 0.6579 mPa·s | –
318.15 K, x1 = 0.008976 | 0.6725 mPa·s and 0.6725 mPa·s | –
318.15 K, x1 = 0.0108 | 0.6756 mPa·s and 0.6756 mPa·s | –
318.15 K, x1 = 0.01215 | 0.6757 mPa·s and 0.6757 mPa·s | –
318.15 K, x1 = 0.01456 | 0.6821 mPa·s and 0.6821 mPa·s | –
323.15 K, x1 = 0.0003 | 0.5508 mPa·s | –
323.15 K, x1 = 0.002 | 0.5589 mPa·s | –
323.15 K, x1 = 0.008932 | 0.5878 mPa·s | –
323.15 K, x1 = 0.01246 | 0.6035 mPa·s | –
323.15 K, x1 = 0.0194 | 0.6412 mPa·s | –
323.15 K, x1 = 0.0294 | 0.6885 mPa·s | –
323.15 K, x1 = 0.036 | 0.7197 mPa·s | –
